Where a SMILES comes first, the peptide text is derived from it. The star is where a group is joined. Cbz = O=C(OCc1ccccc1)*; ClAc = O=C(CCl)*; For = O=C*
Key:
Type in all cases: biochemical
[1] = molecular target: T1, guinea pig liver transglutaminase (Cavia cutleri, UniProt P08587); test: Inhibition of tissue transglutaminase, hydroxamate assay (Example 29); conditions: 20 min preincubation at 37° C., first block r5-r22
T1 sequence (P08587 1-690): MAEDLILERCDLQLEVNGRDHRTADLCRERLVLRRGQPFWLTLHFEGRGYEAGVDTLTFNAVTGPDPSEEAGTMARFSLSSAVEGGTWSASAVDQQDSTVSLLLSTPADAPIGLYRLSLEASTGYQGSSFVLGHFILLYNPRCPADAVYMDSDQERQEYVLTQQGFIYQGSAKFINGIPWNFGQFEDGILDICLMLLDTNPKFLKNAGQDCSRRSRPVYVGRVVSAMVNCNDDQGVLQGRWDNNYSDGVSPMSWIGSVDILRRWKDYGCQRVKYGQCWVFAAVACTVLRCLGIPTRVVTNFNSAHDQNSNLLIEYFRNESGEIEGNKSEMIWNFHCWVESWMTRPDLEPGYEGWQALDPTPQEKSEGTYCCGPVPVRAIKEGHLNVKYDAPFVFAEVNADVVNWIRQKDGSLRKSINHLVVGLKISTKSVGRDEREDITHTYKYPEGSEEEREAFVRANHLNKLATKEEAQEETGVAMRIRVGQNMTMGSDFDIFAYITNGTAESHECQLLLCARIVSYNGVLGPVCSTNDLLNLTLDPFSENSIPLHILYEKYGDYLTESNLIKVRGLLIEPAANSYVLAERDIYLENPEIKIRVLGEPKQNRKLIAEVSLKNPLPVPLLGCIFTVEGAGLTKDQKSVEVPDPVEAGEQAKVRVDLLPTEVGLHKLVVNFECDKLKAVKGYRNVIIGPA
Description: The inhibitors are dissolved in dimethyl sulfoxide (DMSO) at a concentration of 100 mM. Solutions having a concentration of 10 mM, 1 mM and 0.1 mM are prepared by dilution with transglutaminase buffer (50 mM Tris-HCl, pH 7.0, 5 mM CaCl2, 2 mM DTT).
Afterwards, inhibition takes place by incubation (20 minutes at 37° C.) of 25 μL of a transglutaminase solution (bacterial transglutaminase or guinea pig liver transglutaminase, respectively) with 25 μL of the respective inhibitor solution. Immediately after the incubation has finished, 100 μL of substrate solution (0.1 mM hydroxylamine, 30 mM CBZ-Gln-Gly-OH, 2 mM DTT, 5 mM CaCl2 in 50 mM Tris-HCl, pH 7.0) are added and it is incubated for 10 minutes at 37° C. The reaction is stopped with 100 μL of a solution of 4% (w/v) HCl, 1.7% (w/v) FeCl3 and 4% (w/v) trichloroacetic acid [see Grossowicz et al., J. Biol. Chem. 187, 111-125, 1950]. After centrifugation (10 minutes, 10,000× g) the extinction of the supernatant solution at 492 nm in the microtiter plate reader and, thus, the remaining activity of the transglutaminase is determined.

factor XIIIa = molecular target: T2, factor XIIIa (Homo sapiens, UniProt P00488); test: Factor XIIIa fibrin coagulation/crosslinking inhibitor test (Example 31); conditions: inhibitor concentration range 0 to 10 μm; absorption of clots at 405 nm
T2 sequence (P00488 39-732 limits assumed): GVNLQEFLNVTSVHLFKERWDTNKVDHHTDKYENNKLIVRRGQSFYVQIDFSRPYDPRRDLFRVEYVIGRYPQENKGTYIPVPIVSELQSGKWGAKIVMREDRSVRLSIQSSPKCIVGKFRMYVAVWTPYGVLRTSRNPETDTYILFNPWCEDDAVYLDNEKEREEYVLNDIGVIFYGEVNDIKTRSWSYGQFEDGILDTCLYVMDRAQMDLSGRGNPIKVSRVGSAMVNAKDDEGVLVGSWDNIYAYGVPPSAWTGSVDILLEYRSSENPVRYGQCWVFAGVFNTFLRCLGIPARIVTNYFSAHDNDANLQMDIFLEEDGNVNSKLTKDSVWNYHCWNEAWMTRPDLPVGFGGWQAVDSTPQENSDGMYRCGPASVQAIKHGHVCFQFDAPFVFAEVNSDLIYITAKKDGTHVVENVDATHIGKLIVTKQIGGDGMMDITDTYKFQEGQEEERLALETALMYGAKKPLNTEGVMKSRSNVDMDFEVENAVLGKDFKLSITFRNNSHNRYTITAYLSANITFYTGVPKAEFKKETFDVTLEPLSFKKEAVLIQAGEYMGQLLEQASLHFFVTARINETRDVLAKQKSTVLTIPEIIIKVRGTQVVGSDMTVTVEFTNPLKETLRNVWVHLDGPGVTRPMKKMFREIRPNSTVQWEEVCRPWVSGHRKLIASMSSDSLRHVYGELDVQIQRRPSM
Description: The inhibitor tests were carried out in microtiter plates (0.2 ml). This entailed examination of the ability of the plasma transglutaminase to catalyze the coagulation of fibrin with and without inhibitor [modified method of Tymiak et al., J. Antibiot., 46, 204-206 (1993)].
40 μl of bovine fibrinogen (3 mg/ml, Sigma) in 25 mm Tris-HCl with 100 mm NaCl and 2.5 mm Ca^2+, pH 7.5, were incubated with 2 U/ml bovine thrombin (Sigma) at 25° C. for 10 min.
In a second mixture in parallel therewith, likewise 2 U/ml bovine thrombin (Sigma) were added to 20 μg/ml FXIII in 25 mm Tris-HCl with 100 mm NaCl and 2.5 mm Ca^2+, pH 7.5, and incubated at 25° C. for 10 min. The γ-aldehyde inhibitor concentration was then adjusted so that the measurements covered a concentration range from 0 to 10 μm. The reaction mixture was incubated at 25° C. for 15 min.
The two mixtures were combined and, after an incubation at 30° C. for 15 min, 150 μl of urea (8 M) were added. The absorption of the clots was measured at 405 nm.

[2] = molecular target: T1, guinea pig liver transglutaminase; test: Guinea pig liver transglutaminase, incorporation of hydroxylamine into CBZ-Gln-Gly (Example 31); conditions: 0-10 μM inhibitor, 15 min at 25° C.
Description: The inhibitor tests were carried out in analogy to the factor XIII test in microtiter plates. In this case, the incorporation of hydroxylamine into carbobenzoxy-L-glutaminylglycine (CBZ-Gln-Gly) was investigated [modified method of Grossowicz et al., J. Biol. Chem., 187, 111 -125 (1950)].
25 μl (0-10 μM) of inhibitor were added to 25 μl (5.0 U/ml) of guinea pig liver transglutaminase (Sigma) and incubated at 25° C. for 15 min. Then 100 μl of 0.2 M tris-acetate buffer, pH 6.0, with 30 mm CBZ-Gln-Gly, 0.1 M hydroxylamine and 10 mM glutathione were pipetted in. After 10 min at 37° C., the absorption at 492 nm was measured using a microtiter plate reader.

O=C(O)CNC(=O)[C@H](COC(=O)CCl)NC(=O)OCc1ccccc1 [Carbobenzoxy-L-serylglycine β-Chloroacetate] (Cbz-Ser(ClAc)-Gly-OH)
Inhibition of tissue transglutaminase at an inhibitor concentration of 0.05 mM ([1]; 0.05 mM inhibitor): 1%
Inhibition of tissue transglutaminase at an inhibitor concentration of 0.5 mM ([1]; 0.5 mM inhibitor): 43%
Inhibition of tissue transglutaminase at an inhibitor concentration of 5 mM ([1]; 5 mM inhibitor): 91%

CC(=O)OC[C@H](NC(=O)OCc1ccccc1)C(=O)NCC(=O)O [Carbobenzoxy-L-serylglycine β-acetate, Carbobenzoxy-L-serylqlycine β-acetate] (Cbz-Ser(Ac)-Gly-OH)
Inhibition of tissue transglutaminase at an inhibitor concentration of 0.05 mM ([1]; 0.05 mM inhibitor): 0%
Inhibition of tissue transglutaminase at an inhibitor concentration of 0.5 mM ([1]; 0.5 mM inhibitor): 0%
Inhibition of tissue transglutaminase at an inhibitor concentration of 5 mM ([1]; 5 mM inhibitor): 0%

O=COC[C@H](NC(=O)OCc1ccccc1)C(=O)NCC(=O)O [Carbobenzoxy-L-serylglycine β-formate, Carbobenzoxy-L-serylglycine β-Formate] (Cbz-Ser(For)-Gly-OH)
Inhibition of tissue transglutaminase at an inhibitor concentration of 0.05 mM ([1]; 0.05 mM inhibitor): 0%
Inhibition of tissue transglutaminase at an inhibitor concentration of 0.5 mM ([1]; 0.5 mM inhibitor): 0%
Inhibition of tissue transglutaminase at an inhibitor concentration of 5 mM ([1]; 5 mM inhibitor): 56%

CC(C)(C)OC(=O)CNC(=O)[C@H](CNC(N)=O)NC(=O)OCc1ccccc1 [Carbobenzoxy-β-(N-carbamoyl)-L-aminoalanylglycine tert-butyl Ester]
Inhibition of tissue transglutaminase at an inhibitor concentration of 0.05 mM ([1]; 0.05 mM inhibitor): 0%
Inhibition of tissue transglutaminase at an inhibitor concentration of 0.5 mM ([1]; 0.5 mM inhibitor): 0%
Inhibition of tissue transglutaminase at an inhibitor concentration of 5 mM ([1]; 5 mM inhibitor): 0%

CCOC(=O)CNC(=O)[C@H](COC(C)=O)NC(=O)OCc1ccccc1 [Carbobenzoxy-β-(O-acetyl)-L-serylglycine Ethyl Ester] (Cbz-Ser(Ac)-Gly-OEt)
Inhibition of tissue transglutaminase at an inhibitor concentration of 0.05 mM ([1]; 0.05 mM inhibitor): 0%
Inhibition of tissue transglutaminase at an inhibitor concentration of 0.5 mM ([1]; 0.5 mM inhibitor): 0%
Inhibition of tissue transglutaminase at an inhibitor concentration of 5 mM ([1]; 5 mM inhibitor): 0%

CCOC(=O)CNC(=O)[C@H](COC(=O)CCl)NC(=O)OCc1ccccc1 [Carbobenzoxy-β-(O-chloroacetyl)-L-serylglycine Ethyl Ester] (Cbz-Ser(ClAc)-Gly-OEt)
Inhibition of tissue transglutaminase at an inhibitor concentration of 0.05 mM ([1]; 0.05 mM inhibitor): 2%
Inhibition of tissue transglutaminase at an inhibitor concentration of 0.5 mM ([1]; 0.5 mM inhibitor): 7%
Inhibition of tissue transglutaminase at an inhibitor concentration of 5 mM ([1]; 5 mM inhibitor): 76%

CCOC(=O)CNC(=O)[C@H](COC=O)NC(=O)OCc1ccccc1 [Carbobenzoxy-β-(O-formyl)-L-serylglycine Ethyl Ester] (Cbz-Ser(For)-Gly-OEt)
Inhibition of tissue transglutaminase at an inhibitor concentration of 0.05 mM ([1]; 0.05 mM inhibitor): 0%
Inhibition of tissue transglutaminase at an inhibitor concentration of 0.5 mM ([1]; 0.5 mM inhibitor): 0%
Inhibition of tissue transglutaminase at an inhibitor concentration of 5 mM ([1]; 5 mM inhibitor): 0%

NC(=O)NC[C@H](NC(=O)OCc1ccccc1)C(=O)NCC(=O)O [Carbobenzoxy-β-ureido-L-alanylglycine]
inhibition at 50 µM ([1]; 0.05 mM inhibitor, read-out: Inhibition of tissue transglutaminase at an inhibitor concentration of 0.05 mM): 0%
inhibition at 500 µM ([1]; 0.5 mM inhibitor, read-out: Inhibition of tissue transglutaminase at an inhibitor concentration of 0.5 mM): 0%
inhibition at 5000 µM ([1]; 5 mM inhibitor, read-out: Inhibition of tissue transglutaminase at an inhibitor concentration of 5 mM): 35%

O=CCC[C@H](NC(=O)OCc1ccccc1)C(=O)NCC(=O)O [γ-Aldehyde of carbobenzoxy-L-glutamylglycine]
Inhibition of factor XIIIa (fibrin crosslinking) (factor XIIIa): cannot be inhibited
Inhibitor concentration at which guinea pig liver transglutaminase is inhibited [2]: 1 µM

Carbobenzoxy-β-(O-carbamoyl)-L-serylglycine Ethyl Ester
Inhibition of tissue transglutaminase at an inhibitor concentration of 0.05 mM ([1]; 0.05 mM inhibitor): 0%
Inhibition of tissue transglutaminase at an inhibitor concentration of 0.5 mM ([1]; 0.5 mM inhibitor): 0%
Inhibition of tissue transglutaminase at an inhibitor concentration of 5 mM ([1]; 5 mM inhibitor): 0%

γ-Aldehyde of tert-butyloxycarbonyl-L-glutaminyl-L-glutaminyl-L-isoleucyl-L-valine
Inhibition of factor XIIIa (fibrin crosslinking) (factor XIIIa): effective factor XIIIa inhibitor
